In patent publication US11648248B1 (King Abdulaziz University, priority 2022, dated 2023):
Values after ≈ are worked out from the molar mass of the structure shown. Read-outs that look alike come from different tables or passages of the source.

Assays:
Assay type in all cases: cell-based
[1] = test system: Vancomycin-resistant Staphylococcus aureus (VRSA12); assay: MIC of active MY compounds; conditions: read-out: MIC VRSA12
From the text: (§1) Based upon the initial results obtained, the active compounds were further screened against additional clinical isolates of methicillin-sensitive S. aureus (MSSA), methicillin-resistant S. aureus (MRSA), vancomycin-resistant S. aureus (VRSA), Staphylococcus epidermidis, vancomycin-resistant Enterococcus faecium (VRE), vancomycin-resistant Enterococcus faecalis (VRE) and Streptococcus pneumoniae, as presented in Table 2. Additionally, we examined whether the compounds were bacteriostatic (inhibit bacteria from growing) or bactericidal (kill bacteria) by determining the minimum bactericidal concentration (MBC). The MBC was determined by plating 5 μL from each well where no growth was present (in the MIC plates) onto tryptic soya agar plates and incubating plates at 37° C. for 24 hours. The MBC was categorized as the lowest concentration that generated a 99.9% reduction in bacterial colony-forming units (Table 3).
(§2) The minimum inhibitory concentrations (MICs) of the tested compounds and control drugs; linezolid, vancomycin, gentamicin (antibiotics) and fluconazole and 5-fluorocytosine (5-FC) (antifungal drugs) were determined using the broth microdilution method, according to guidelines outlined by the Clinical and Laboratory Standards Institute (CLSI)^1, 2, 3 against clinically-relevant bacterial (methicillin-resistant Staphylococcus aureus (MRSA), Escherichia coli and Clostridium difficile strains) and fungal (Candida albicans) strain. S. aureus and E. coli were grown aerobically overnight on tryptone soy agar plates at 37° C. C. difficile was grown anaerobically on brain heart infusion supplemented agar at 37° C. for 48 hours. C. albicans was grown aerobically overnight on yeast peptone dextrose (YPD) agar plate at 35° C. Afterwards, a bacterial solution equivalent to 0.5 McFarland standard was prepared and diluted in cation-adjusted Mueller-Hinton broth (CAMHB) (for S. aureus and E. coli) to achieve a bacterial concentration of about 5×10^5 CFU/mL. C. difficile was diluted in brain heart infusion supplemented broth, supplemented with yeast extract, hemin and vitamin K to achieve a bacterial concentration of about 5×10^5 CFU/mL. C. albicans was diluted in Roswell Park Memorial Institute (RPMI 1640) medium with glutamine and without bicarbonate (GIBCO by Life Technologies, Green Island, N.Y., USA) which was buffered to pH 7.0 with 0.165 M of [3-(N-morpholino) propanesulfonic acid] (MOPS) (dot scientific inc., Burton, Mich., USA) to achieve a fungal concentration of about 1.5×10^3 CFU/mL. Compounds and control drugs were added in the first row of the 96-well plates and serially diluted with the corresponding media containing bacteria/fungi. Plates were then, incubated aerobically at 37° C. for 18-20 hours (for S. aureus and E. coli). C. difficile was incubated anaerobically at 37° C. for 48 hours. C. albicans was incubated aerobically at 37° C. for 24 hours.

[2] = test system: Methicillin-sensitive Staphylococcus aureus ATCC-6538 (MSSA ATCC-6538); assay: MIC of active MY compounds; conditions: read-out: MIC MSSA ATCC-6538
From the text: as §1, §2

[3] = test system: Vancomycin-resistant Enterococcus fecalis ATCC-51299 (VRE ATCC-51299); assay: MIC of active MY compounds; conditions: read-out: MIC VRE ATCC-51299
From the text: as §1, §2

[4] = test system: Methicillin-sensitive Staphylococcus aureus (MSSA NRS-107); assay: MIC of active MY compounds; conditions: read-out: MIC MSSA NRS-107
From the text: as §1, §2

[5] = test system: Vancomycin-resistant Enterococcus faecium ATCC-700221 (VRE ATCC-700221); assay: MIC of active MY compounds; conditions: read-out: MIC VRE ATCC-700221
From the text: as §1, §2

[6] = test system: Cephalosporin-resistant Streptococcus pneumoniae ATCC-700677; assay: MIC of active MY compounds; conditions: ATCC700677, read-out: MIC S. pneumoniae ATCC 700677
From the text: as §1, §2

[7] = test system: Methicillin-resistant Staphylococcus aureus (MRSA NRS-123, USA400); assay: MIC of active MY compounds; conditions: read-out: MIC MRSA NRS123 (USA400)
From the text: as §1, §2

[8] = test system: Staphylococcus epidermidis (NRS-101); assay: MIC of active MY compounds; conditions: NRS101, read-out: MIC S. epidermidis NRS 101
From the text: as §1, §2

[9] = test system: Vancomycin-resistant Staphylococcus aureus (VRSA10); assay: MIC of active MY compounds; conditions: read-out: MIC VRSA10
From the text: as §1, §2

[10] = test system: Cephalosporin-resistant Streptococcus pneumoniae ATCC-15916; assay: MIC of active MY compounds; conditions: ATCC15916, read-out: MIC S. pneumoniae ATCC-15916
From the text: as §1, §2

[11] = test system: Methicillin-resistant Staphylococcus aureus (MRSA NRS-119); assay: MIC of active MY compounds; conditions: read-out: MIC MRSA NRS119
From the text: as §1, §2

[12] = test system: Listeria monocytogenes ATCC-19111; assay: MIC of active MY compounds; conditions: ATCC19111, read-out: MIC L. monocytogenes ATCC-19111
[13] = test system: Vancomycin-resistant Staphylococcus aureus (VRSA12); assay: MBC by plating from MIC wells; conditions: read-out: MBC VRSA12
From the text: as §1

[14] = test system: Listeria monocytogenes ATCC-19111; assay: MBC by plating from MIC wells
From the text: as §1

[15] = test system: Vancomycin-resistant Enterococcus fecalis ATCC-51299 (VRE ATCC-51299); assay: MBC by plating from MIC wells; conditions: read-out: MBC VRE ATCC-51299
From the text: as §1

[16] = test system: Vancomycin-resistant Enterococcus faecium ATCC-700221 (VRE ATCC-700221); assay: MBC by plating from MIC wells; conditions: read-out: MBC VRE ATCC-700221
From the text: as §1

[17] = test system: Methicillin-resistant Staphylococcus aureus (MRSA NRS-123, USA400); assay: MBC by plating from MIC wells; conditions: read-out: MBC MRSA NRS123 (USA400)
From the text: as §1

[18] = test system: Cephalosporin-resistant Streptococcus pneumoniae ATCC-15916; assay: MBC by plating from MIC wells
From the text: as §1

[19] = test system: Methicillin-resistant Staphylococcus aureus (MRSA NRS-119); assay: MBC by plating from MIC wells; conditions: read-out: MBC MRSA NRS119
From the text: as §1

[20] = ATCC19111, 99.9% reduction in CFU, read-out: MBC L. monocytogenes ATCC-19111
[21] = ATCC15916, 99.9% reduction in CFU, read-out: MBC S. pneumoniae ATCC-15916

| Structure (SMILES) | MIC [1] [µg/mL] | MIC [2] [µg/mL] | MIC [3] [µg/mL] | MIC [4] [µg/mL] | MIC [5] [µg/mL] | MIC [6] [µg/mL] | MIC [7] [µg/mL] | MIC [8] [µg/mL] | MIC [9] [µg/mL] | MIC [10] [µg/mL] | MIC [11] [µg/mL] | MIC [12] [µg/mL] | MBC ([13]; 99.9% reduction in CFU) [µg/mL] | MBC [14, 20] [µg/mL] | MBC ([15]; 99.9% reduction in CFU) [µg/mL] | MBC ([16]; 99.9% reduction in CFU) [µg/mL] | MBC ([17]; 99.9% reduction in CFU) [µg/mL] | MBC [18, 21] [µg/mL] | MBC ([19]; 99.9% reduction in CFU) [µg/mL] | also measured |
| --- | --- | --- | --- | --- | --- | --- | --- | --- | --- | --- | --- | --- | --- | --- | --- | --- | --- | --- | --- | --- |
| CC(=O)NC[C@H]1CN(c2ccc(N3CCOCC3)c(F)c2)C(=O)O1 [Linezolid, reference compound] | 1 | 0.5 | 1 | 1 | 1 | 1 | 1 | 0.5 | 1 | 1 | 64 | 0.5 | 16 (≈ 47.4 µM) | 32 (≈ 94.9 µM) | 16 (≈ 47.4 µM) | 16 (≈ 47.4 µM) | 64 (≈ 190 µM) | 32 (≈ 94.9 µM) | > 64 | – |
| O=C(Nc1ccc(-c2ccc(=O)[nH]n2)cc1)Nc1ccc(Cl)c(Cl)c1 [MY21, 1-(3,4-dichlorophenyl)-3-(4-(6-oxo-1,6-dihydropyridazin-3-yl)phenyl)urea] | 1 | 1 | 4 | 1 | 2 | 2 | 1 | 1 | 1 | 2 | 1 | 0.5 | 8 (≈ 21.3 µM) | 0.5 (≈ 1.33 µM) | 16 (≈ 42.6 µM) | 4 (≈ 10.7 µM) | 8 (≈ 21.3 µM) | 4 (≈ 10.7 µM) | 1 (≈ 2.67 µM) | – |
| CNC(=O)c1cc(Oc2ccc(NC(=O)Nc3ccc(Cl)c(C(F)(F)F)c3)cc2)ccn1 [Sorafenib, reference compound] | 2 | 4 | > 64 | 8 | > 64 | 4 | 4 | 8 | 4 | 4 | 2 | 4 | > 64 | > 64 | > 64 | > 64 | > 64 | > 64 | > 64 | – |
| O=C(Nc1ccc(Oc2ccc(=O)[nH]n2)cc1)Nc1ccc(Cl)c(Cl)c1 [MY24, 1-(3,4-dichlorophenyl)-3-(4-((6-oxo-1,6-dihydropyridazin-3-yl)oxy)phenyl)urea] | 2 | 1 | 4 | 1 | 4 | 2 | 1 | 1 | 1 | 2 | 1 | 1 | > 64 | 64 (≈ 164 µM) | > 64 | 16 (≈ 40.9 µM) | > 64 | 64 (≈ 164 µM) | 32 (≈ 81.8 µM) | – |
| O=C(Nc1cccc(Nc2ccc(Cl)nn2)c1)Nc1ccc(Cl)c(Cl)c1 [MY14, 1-(3-((6-chloropyridazin-3-yl)amino)phenyl)-3-(3,4-dichlorophenyl)urea] | 4 | 2 | 64 | 4 | 32 | 4 | 4 | 8 | 2 | 4 | 4 | 8 | 32 (≈ 78.3 µM) | > 64 | > 64 | > 64 | 8 (≈ 19.6 µM) | 64 (≈ 157 µM) | 8 (≈ 19.6 µM) | – |
| CN[C@H](CC(C)C)C(=O)N[C@H]1C(=O)N[C@@H](CC(N)=O)C(=O)N[C@H]2C(=O)N[C@H]3C(=O)N[C@H](C(=O)N[C@H](C(=O)O)c4cc(O)cc(O)c4-c4cc3ccc4O)[C@H](O)c3ccc(c(Cl)c3)Oc3cc2cc(c3O[C@@H]2O[C@H](CO)[C@@H](O)[C@H](O)[C@H]2O[C@H]2C[C@](C)(N)[C@H](O)[C@H](C)O2)Oc2ccc(cc2Cl)[C@H]1O [Vancomycin, reference compound] | 64 | 1 | 32 | 2 | > 64 | 1 | 1 | 2 | 64 | 1 | 1 | 1 | – | – | – | – | – | – | – | MBC [13]: > 64 µg/mL; MBC ([14]; ATCC19111, read-out: MBC L. monocytogenes ATCC-19111): 2 µg/mL (≈ 1.38 µM); MBC [15]: 64 µg/mL (≈ 44.2 µM); MBC [16]: > 64 µg/mL; MBC [17]: 2 µg/mL (≈ 1.38 µM); MBC ([18]; ATCC15916, read-out: MBC S. pneumoniae ATCC-15916): 1 µg/mL (≈ 0.69 µM); MBC [19]: 1 µg/mL (≈ 0.69 µM) |
| O=C(Nc1ccc(Oc2ccc(=O)[nH]n2)cc1)Nc1ccc(Cl)c(C(F)(F)F)c1 [MY31, 1-(4-chloro-3-(trifluoromethyl)phenyl)-3-(4-((6-oxo-1,6-dihydropyridazin-3-yl)oxy)phenyl)urea] | 1 | 0.5 | 2 | 0.5 | 1 | 0.5 | 0.5 | 0.5 | 0.5 | 0.5 | 0.5 | 0.5 | > 64 | > 64 | > 64 | 4 (≈ 9.42 µM) | > 64 | 4 (≈ 9.42 µM) | 2 (≈ 4.71 µM) | – |
